According to publication PMC11233931, “Remodeling tumor‐associated macrophage for anti‐cancer effects by rational design of irreversible inhibition of mitogen‐activated protein kinase‐activated protein kinase 2” (MedComm, 2024):
Where two headings read alike, the source gives them in different places.

Key:
[1] = target: T1, FGFR4 (Homo sapiens, UniProt P22455); assay: Eurofins kinase selectivity profile, FGFR4; type: biochemical
T1 construct: purchased Eurofins (Celle Lévescault)
Description: (§1) Subsequently, to ascertain whether the high potency of compound 11 was specific for MK2, an additional 380 human recombinant protein kinases were screened.
(§2) To assess the impact of various compounds on MK2 kinase activity, we utilized the ADP‐Glo Assay Kit (Promega) following the manufacturer's instructions. Luminescence measurements were taken using a SpectraMax Paradigm reader. The inhibition percentage was calculated using the following formula: ((specific signalDMSO control − specific signal inhibitor)/(specific signalDMSO control)) × 100%. The IC50 values were determined employing dose–response curve fitting via Prism (Graph Pad). Additionally, Eurofins company (Celle Lévescault) conducted the analysis on compound 11’s inhibitory activity against 380 other human recombinant kinases at various concentrations.

[2] = Mouse pharmacokinetics study; type: in vivo; details: male, ICR, plasma, mice, ip. 10 mg/kg, mean ± SD
Description: Compound 11 was dissolved in DMSO/Tween 80/PEG400/NaCl (5/5/45/45, v/v/v/v) to a concentration of 5 mg/mL and given to ICR mice (male, 18−22 g, n = 3) by intraperitoneal injection. Blood samples were obtained at intervals of 0.25, 0.5, 1, 2, 4, and 8 h following administration. The sample preparation and the analysis were following the protocol provided in the Supporting Information Methods.
[…] of plasma was mixed with […] of methanol: acetonitrile solvent (1:1, v/v) with internal standard, and the mixture was thoroughly vortexed. After centrifugation for 5 minutes, […] of the supernatant was combined with […] of water for analysis. Samples were analyzed by Xevo TQ-S triple quadrupole mass spectrometer. The ACQUITY UPLC BEH C^18 (1.7 µm, 2.0mm_ 50 mm, Waters, USA) was adopted for the analysis. Gradient elution was employed using a 5 mM ammonium acetate aqueous solution containing 0.1% formic acid, along with acetonitrile containing 0.1% formic acid. Following the analysis of compound concentrations, Phoenix WinNonlin (CERTARA, USA) was utilized to calculate the value of AUClast, AUCINFinf_obs and MRTINFinf_obs from time-concentration curves in each animal. Cmax denotes the peak plasma concentration, while Tmax signifies the time taken to achieve the peak concentration.

[3] = target: T2, p38 (Homo sapiens, UniProt P53778); assay: Eurofins kinase selectivity profile, p38; type: biochemical; details: p38-gamma/SAPK3(h), read-out: Inhibition rate (%)
T2 construct: purchased Eurofins (Celle Lévescault)
T2 sequence (P53778 1-367): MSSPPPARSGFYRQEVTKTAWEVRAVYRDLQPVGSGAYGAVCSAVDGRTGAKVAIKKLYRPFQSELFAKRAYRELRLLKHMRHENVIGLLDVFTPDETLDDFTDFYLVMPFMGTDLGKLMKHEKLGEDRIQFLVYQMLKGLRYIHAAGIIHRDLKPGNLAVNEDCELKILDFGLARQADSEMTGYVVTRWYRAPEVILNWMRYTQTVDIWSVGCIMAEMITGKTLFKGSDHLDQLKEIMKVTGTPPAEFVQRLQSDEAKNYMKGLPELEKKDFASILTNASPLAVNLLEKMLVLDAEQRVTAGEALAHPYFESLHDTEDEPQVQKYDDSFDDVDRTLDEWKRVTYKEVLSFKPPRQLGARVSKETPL
Description: as §1, §2

[4] = target: T3, p38 (Homo sapiens, UniProt O15264); assay: Eurofins kinase selectivity profile, p38; type: biochemical; details: p38-delta/SAPK4(h), read-out: Inhibition rate (%)
T3 construct: purchased Eurofins (Celle Lévescault)
T3 sequence (O15264 1-365): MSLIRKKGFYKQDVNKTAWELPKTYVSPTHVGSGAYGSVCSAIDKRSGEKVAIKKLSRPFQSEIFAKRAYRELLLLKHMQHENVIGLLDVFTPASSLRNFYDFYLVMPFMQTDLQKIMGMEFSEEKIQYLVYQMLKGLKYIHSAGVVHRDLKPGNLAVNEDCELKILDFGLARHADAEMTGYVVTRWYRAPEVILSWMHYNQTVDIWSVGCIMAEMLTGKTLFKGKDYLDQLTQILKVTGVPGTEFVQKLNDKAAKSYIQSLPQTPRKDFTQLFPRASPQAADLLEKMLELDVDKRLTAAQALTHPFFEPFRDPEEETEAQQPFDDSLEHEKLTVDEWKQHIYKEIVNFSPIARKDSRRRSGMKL
Description: as §1, §2

[5] = target: T4, p38 (Homo sapiens, UniProt Q16539); assay: Eurofins kinase selectivity profile, p38; type: biochemical
T4 construct: purchased Eurofins (Celle Lévescault)
Description: as §1, §2

[6] = test system: p38; assay: Eurofins kinase selectivity profile, p38; type: biochemical, human
Description: as §1, §2

[7] = target: T5, p38 (Homo sapiens, UniProt Q15759); assay: Eurofins kinase selectivity profile, p38; type: biochemical; details: p38-beta/SAPK2b(h), read-out: Inhibition rate (%)
T5 construct: purchased Eurofins (Celle Lévescault)
Description: as §1, §2

T5 sequence (Q15759 whole entry): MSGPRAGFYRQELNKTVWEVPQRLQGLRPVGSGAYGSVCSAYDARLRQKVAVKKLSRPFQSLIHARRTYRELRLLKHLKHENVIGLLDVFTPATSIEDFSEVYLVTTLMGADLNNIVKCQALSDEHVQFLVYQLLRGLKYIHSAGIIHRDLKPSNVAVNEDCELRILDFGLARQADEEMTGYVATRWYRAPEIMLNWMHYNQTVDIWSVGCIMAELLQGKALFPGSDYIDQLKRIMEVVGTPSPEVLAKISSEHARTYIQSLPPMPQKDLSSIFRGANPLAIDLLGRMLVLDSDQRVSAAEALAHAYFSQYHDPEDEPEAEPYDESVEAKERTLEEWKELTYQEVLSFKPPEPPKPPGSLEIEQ
T1 sequence (P22455 22-802): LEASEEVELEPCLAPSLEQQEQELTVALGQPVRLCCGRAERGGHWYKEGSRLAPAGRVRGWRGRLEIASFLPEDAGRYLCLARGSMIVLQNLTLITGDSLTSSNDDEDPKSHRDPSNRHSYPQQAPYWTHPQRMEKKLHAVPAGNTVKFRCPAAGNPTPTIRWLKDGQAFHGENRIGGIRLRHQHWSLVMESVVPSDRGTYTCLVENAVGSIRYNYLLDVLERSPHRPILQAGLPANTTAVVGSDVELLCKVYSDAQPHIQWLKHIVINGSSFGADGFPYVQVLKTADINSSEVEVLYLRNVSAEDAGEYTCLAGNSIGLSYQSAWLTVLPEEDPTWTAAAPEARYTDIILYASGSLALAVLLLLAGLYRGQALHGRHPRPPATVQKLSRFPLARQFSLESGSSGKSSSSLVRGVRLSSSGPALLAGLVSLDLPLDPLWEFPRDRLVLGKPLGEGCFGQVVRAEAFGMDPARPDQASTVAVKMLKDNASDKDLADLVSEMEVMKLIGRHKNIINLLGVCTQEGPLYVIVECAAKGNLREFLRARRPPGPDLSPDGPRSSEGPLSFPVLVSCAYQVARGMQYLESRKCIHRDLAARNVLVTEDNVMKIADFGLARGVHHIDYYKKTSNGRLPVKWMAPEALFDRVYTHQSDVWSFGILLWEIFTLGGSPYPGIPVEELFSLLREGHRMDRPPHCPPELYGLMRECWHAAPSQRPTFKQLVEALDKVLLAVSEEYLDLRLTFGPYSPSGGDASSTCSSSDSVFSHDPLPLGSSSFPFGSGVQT
T4 sequence (Q16539 2-360): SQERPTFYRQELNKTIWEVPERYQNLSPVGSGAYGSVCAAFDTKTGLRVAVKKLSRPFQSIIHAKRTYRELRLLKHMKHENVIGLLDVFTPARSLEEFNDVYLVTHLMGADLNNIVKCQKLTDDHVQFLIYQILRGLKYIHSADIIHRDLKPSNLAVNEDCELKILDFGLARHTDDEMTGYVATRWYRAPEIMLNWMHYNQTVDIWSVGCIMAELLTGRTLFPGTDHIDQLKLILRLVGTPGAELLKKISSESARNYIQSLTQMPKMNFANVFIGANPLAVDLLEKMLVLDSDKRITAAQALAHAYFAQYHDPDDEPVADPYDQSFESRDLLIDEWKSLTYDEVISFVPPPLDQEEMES

C=CC(=O)Nc1cc(-c2cc(-c3cc4c([nH]3)CCNC4=O)ccn2)ccc1OC(F)(F)F [compound 11]
IC50 [1]: > 1000 nM
inhibition at 0.01 µM ([1]; FGFR4(h), 10 nM, read-out: Inhibition rate): 0%
inhibition at 0.1 µM ([1]; FGFR4(h), 100 nM, read-out: Inhibition rate): -5%
inhibition at 1 µM ([1]; FGFR4(h), 1000 nM, read-out: Inhibition rate): -1%
AUC(0-t) [2]: 44.5 ± 21.4 ng·h/mL
Cmax [2]: 126 ng/mL
Tmax [2]: 3 min
half-life [2]: 22.8 min
AUC ([2]; read-out: AUCinf_obc): 45.2 ± 21.3 ng·h/mL
MRT inf ([2]; read-out: MRTinf_obs): 98.4 ± 125 min
inhibition at 0.01 µM ([3]; 10 nM): 5%
inhibition at 0.1 µM ([3]; 100 nM): 2%
inhibition at 1 µM ([3]; 1000 nM): 20%
inhibition at 0.01 µM ([4]; 10 nM): -3%
inhibition at 0.1 µM ([4]; 100 nM): -6%
inhibition at 1 µM ([4]; 1000 nM): 8%
IC50 [5]: > 1000 nM
inhibition at 1 µM ([5]; 1 µM, read-out: inhibition rate on p38 kinase): < 10%
inhibition at 0.01 µM ([5]; p38-alpha/SAPK2a(h), 10 nM, read-out: Inhibition rate): 0%
inhibition at 0.1 µM ([5]; p38-alpha/SAPK2a(h), 100 nM, read-out: Inhibition rate): -3%
inhibition at 1 µM ([5]; p38-alpha/SAPK2a(h), 1000 nM, read-out: Inhibition rate): -5%
selectivity for MK2 over p38 [6]: over 434 fold
inhibition at 0.01 µM ([7]; 10 nM): -7%
inhibition at 0.1 µM ([7]; 100 nM): -11%
inhibition at 1 µM ([7]; 1000 nM): -4%
